{"source": "paper PMC12124432", "about": "“Antimicrobial Peptide‐Peptoid Macrocycles from the Polymyxin B2 Chemical Space” (Angewandte Chemie (International Ed. in English), 2025)", "key": {"E. coli W3110": {"system": "E. coli W3110", "type": "cell-based, Escherichia coli", "details": "W3110, pH 8.5", "method": "(§1) Minimal Inhibitory Concentration (MIC)\n(§2) Antimicrobial activity was assayed for all the peptide-peptoids against P. aeruginosa PAO1, K. pneumoniae NCTC418, E. coli W3110, A. baumannii ATCC 19606, methicillin-resistant S. aureus COL (MRSA) and for selected peptides on P. aeruginosa PA14, as well as the clinical isolates ZEM-1A and ZEM9A, K. pneumoniae OXA-48, Enterobacter cloacae, Stenotrophomonas maltophilia and Staphylococus epidermidis. To determine the Minimal Inhibitory Concentration (MIC), Broth Microdilution method was used. A colony of bacteria was picked and grown in LB medium overnight at 37 °C. The next day, the culture was then regrown in LB medium to log phase (OD600 = 0.6 to 0.8), which lasted approximately 4 hours, and diluted to an OD600 of 0.022 in the desired medium (full MH or 12.5% MH).\n(§3) The compounds were prepared as stock solutions of 2 mg/mL in sterilized MilliQ deionized water and then diluted in the desired media (full MH or 12.5% MH) to reach the first concentration tested (32 μg/mL). The compounds were added to the first well of a 96-well sterile, round bottom microtiter plates in polystyrene (TPP®, untreated) and diluted serially by ½ in the desired media (full MH or 12.5% MH), to a final volume of 150 µL/well. To each well was finally added 4 µL of the diluted bacterial suspension (see above), corresponding to approximately 5×10^5 CFU. For each test, two columns of the plate were kept for sterility control (medium only), growth control (medium with bacterial inoculum, no compound). The positive control, Polymyxin B (starting with a concentration of 16 µg/mL) in MH medium with bacterial inoculums, was introduced in the two first lines of the plate. The plates were incubated at 37 °C for ca. 18 hours under static conditions. 15 µL of 3-(4,5-dimethylthiazol-2-yl)-2,5-diphenyltetrazolium bromide (MTT)[7] (1 mg/mL in sterilized MilliQ deionized water) were added to each well and the plates were incubated for 20-30 minutes at room temperature. The […]\n(§4) minimal inhibitory concentration (MIC) was defined as the lowest concentration of the compound that inhibits the visible growth of the tested bacteria (yellow) with the unaided eye.\n(§5) Minimal Hemolytic Concentration (MHC) […]\n(§6) 11. Minimal inhibitory in presence of salt\n(§7) The same procedure as for the antibacterial activity measurements by minimal inhibitory concentration assay (MIC) was applied. The media, 12.5% Mueller-Hinton broth was this time supplemented with different salt concentrations (0, 100, 200 300 mM NaCl). […]\n(§8) All data, in μg/mL, measured against P. aeruginosa PAO1, with or without addition of salt (NaCl). The values were measured in dilute medium (12.5% MH) and at slightly basic pH (pH = 8.5), after incubation for 16-20 h at 37 °C. Values represent two different duplicate MIC determinations."}, "P. aeruginosa PAO1": {"system": "P. aeruginosa PAO1", "type": "cell-based, Pseudomonas aeruginosa", "details": "PAO1, pH 8.5", "method": "as §1, §2, §3, §4, §5, §6\nas §7, with “NaCl). The MIC activities were then determined against Pseudomonas aeruginosa PAO1 and Escherichia coli” for “NaCl).”\nTable S6. Minimal inhibitory concentration (MIC) on P. aeruginosa PAO1 as function of salt […]\nas §8"}, "[1]": {"system": "E. coli W3110, P. aeruginosa PAO1, S. aureus COL (MRSA), A. baumannii ATCC19606, K. pneumoniae NCTC418", "assay": "MIC of macrocycles versus their linearized analogs (Table S4 panel)", "type": "cell-based", "details": "Table S4, 12.5% MH pH 7.4", "method": "as §1\nas §2, with “MH). […]” for “MH).”\nTo determine the minimal hemolytic concentration (MHC), stock solutions of 8 mg/mL of the peptide in sterilized MilliQ water deionized were prepared and 50 μL were diluted serially by ½ in 50 μL PBS (pH 7.4) in 96-well plate (Costar or Nunc, polystyrene, untreated). […] Minimal hemolytic concentration (MHC) end points were determined by visual determination of the wells after the incubation period. […]"}, "human red blood cells": {"system": "human red blood cells", "assay": "Minimal hemolytic concentration (MHC)", "type": "cell-based", "details": "pH 7.4, 25 °C, 4 h", "method": "as §4\nMinimal Hemolytic Concentration (MHC)\nTo determine the minimal hemolytic concentration (MHC), stock solutions of 8 mg/mL of the peptide in sterilized MilliQ water deionized were prepared and 50 μL were diluted serially by ½ in 50 μL PBS (pH 7.4) in 96-well plate (Costar or Nunc, polystyrene, untreated). Human red blood cells (hRBC) were obtained by centrifugation of 1.5 mL of whole blood, from the blood bank of Bern, at 3000 rpm for 15 minutes at 4 °C. Plasma was discarded and the pellet was re-suspended in a 15 mL Falcon tube in 5 mL of PBS. The washing was repeated three times, and the remaining pellet was re-suspended in 10 mL of PBS at a final hRBC concentration of 5%. The hRBC suspension (50 μL) was added to each well and the plate was incubated at room temperature for 4 hours. Minimal hemolytic concentration (MHC) end points were determined by visual determination of the wells after the incubation period.\nControls on each plate included a blank medium control (50 μL PBS + 50 μL of hRBC suspension) and a hemolytic activity control t-octylphenoxypolyethoxyethanol (Triton-X100) (1 % in MilliQ-deionized water) 50 μL + 50 μL hRBC suspension).\nTable S3. […]"}, "[2]": {"assay": "Dansyl-polymyxin (DsPMB) displacement assay", "type": "binding, Pseudomonas aeruginosa", "details": "37 °C, 2.5 µM DsPMB, LPS 3 μg/mL, emission 485 nm; mean ± SD, n = 3", "method": "14. Dansyl-Polymyxin (DsPMB) Displacement Assay\nSaturation determination. Dansyl-polymyxin (DsPMB) in water (1.5 mg/mL) and lyophilized lipopolysaccharides from P. aeruginosa were obtained from Merck. LPS were prepared as a 1 mg/mL stock solution in mQ water and stored at 4 °C. The fluorescence saturation of DsPMB with LPS was first determined, by titration (0.25 μM increments, up to 5 μM) of the DsPMB into a 3 μg/mL of LPS (10 mM Tris, 10 mM NaCl buffer, pH 7.4), at 37 °C. The fluorescence was recorded with a Jasco spectrofluorometer FP-8300, with the excitation at λex = 340 nm (5 nm slit width) and recorded from 420 to 650 nm. The fluorescence was recorded two minutes after each addition. Saturation was graphically determined, at a concentration of D sPMB ≈ 2.5 μM (λem = 485 nm). Each measurement was determined in triplicates.\nDisplacement assay. The displacement effect of the various peptides was determined by measuring the reduction of fluorescence intensity, at 37 °C. Initially, DsPMB (2.5 μM) was mixed with LPS (3 μg/mL) and let it react for 15 minutes before recording the fluorescence […]\nintensity (at λem = 485 nm and λex = 340 nm). Then, the peptide was titrated (1 μM increments, up to 10 μM) into the DsPMB/LPS mixture, and the fluorescence was recorded two minutes after the compound addition. The decrease in fluorescence was interpreted as the displacement of DsPMB from the LPS due to competitive binding by the peptide.[12,13] Specific Fluorescence Enhancement\nFigure S8. Fluorescence emission of dansyl-polymyxin (DsPMB) in presence of lipopolysaccharide (LPS) extracted from P. aeruginosa (3 µg/mL) in TRIS/NaCl buffer (10 mM, pH 7.4). The fluorophore was excited at 340 nm (5 nm slit width) and recorded from 420 to 650 nm. The data represent mean value from three measurement. Specific fluorescence represents the emission of DsPMB with the non-specific fluorescence (no LPS) deduced."}, "Serum stability assay": {"assay": "Serum stability assay", "type": "in vitro ADME", "details": "human serum 12.5% in 0.1 M Tris buffer pH 7.4, 37 °C, 200 µM peptide, time points 0/1/6/10/24 h, triplicates, LC(-MS), 4-hydroxybenzoic acid internal standard", "method": "Human serum was diluted in 0.1 M filtered TRIS buffer pH 7.4 (25%, 1:3, v/v). Selected hybrids were diluted in 0.1 M filtered TRIS buffer pH 7.4 to a concentration of 400 μM and 0.1 mg/mL of 4-hydroxybenzoic acid was added as internal standard. Aliquots of peptide solution (50 μL) were added to aliquots of serum (50 uL) in sterile Eppendorf tubes, to reach a peptide concentration of 200 μM during the assay. Samples were incubated at 37 °C under gentle stirring (350 rpm). Different samples (triplicates) were quenched at different time points (0 / 1 / 6 / 10 / 24 h) by precipitating serum proteins through the addition of 100 μL of a solution ZnSO4·7 H2O (0.05 mM) in water/ACN (1:1) and cooling in ice bath for 10 minutes.\nProtein precipitates were pelleted under centrifugation (5 min at 14’000 rpm) and the supernatants were analysed by LC-MS. Experiment controls included a precipitation control for each peptide to test their resistance to the protein precipitation conditions and serum blanks to check reproducibility over different serum batches. Peaks corresponding to the internal standard and the undegraded peptides were integrated, with the ratio peptide/standard at t = 0 h as 100 % undegraded peptide.\nCell Culture Conditions. […]"}}, "note": "Bridge positions count the residues as written; N and C are the ends. Square brackets hold non-standard residues; d marks the D form. Peptide text beside a SMILES is read from it. * marks the point of attachment. Propanoyl(3-cHex) = O=C(CCC1CCCCC1)*; Gly(NCH2CH2Ph) = O=C(O)CNCCc1ccccc1; Heptanoyl(6-Me) = CC(C)CCCCC(=O)*; N(iPr)Gly = CC(C)NCC(=O)O; Dab = NCC[C@H](N)C(=O)O", "data": [{"compound": "CC(C)N1CC(=O)N[C@@H](CCCCN)C(=O)N[C@@H](CO)C(=O)N[C@@H](CCCCN)C(=O)NCC[C@H](NC(=O)[C@H](CCCCN)NC(=O)[C@@H]2CCCN2C(=O)CN(CCc2ccccc2)C(=O)CCC2CCCCC2)C(=O)N[C@@H](CC(N)=O)C(=O)NCC1=O", "note": "[EB37] ({Propanoyl(3-cHex)}-[Gly(NCH2CH2Ph)]PK[Dab]NG[N(iPr)Gly]KSK; lactam 4-C)", "values": [{"measurement": "MIC on E. coli, 0 mM NaCl", "setting": "E. coli W3110", "value": 32, "unit": "mg/L"}, {"measurement": "MIC on E. coli, 100 mM NaCl", "setting": "E. coli W3110", "value": "> 64", "unit": "mg/L"}, {"measurement": "MIC on E. coli, 200 mM NaCl", "setting": "E. coli W3110", "value": "> 64", "unit": "mg/L"}, {"measurement": "MIC on E. coli, 300 mM NaCl", "setting": "E. coli W3110", "value": "> 64", "unit": "mg/L"}, {"measurement": "MIC on P. aeruginosa, 0 mM NaCl", "setting": "P. aeruginosa PAO1", "value": 32, "unit": "mg/L"}, {"measurement": "MIC on P. aeruginosa, 100 mM NaCl", "setting": "P. aeruginosa PAO1", "value": "> 64", "unit": "mg/L"}, {"measurement": "MIC on P. aeruginosa, 200 mM NaCl", "setting": "P. aeruginosa PAO1", "value": "> 64", "unit": "mg/L"}, {"measurement": "MIC on P. aeruginosa, 300 mM NaCl", "setting": "P. aeruginosa PAO1", "value": "> 64", "unit": "mg/L"}]}, {"compound": "CC(C)CCCCC(=O)N[C@@H](CCN)C(=O)N[C@H](C(=O)N[C@@H](CCN)C(=O)N[C@H]1CCNC(=O)[C@H]([C@@H](C)O)NC(=O)[C@H](CCN)NC(=O)[C@H](CCN)NC(=O)[C@H](CC(C)C)NC(=O)[C@@H](Cc2ccccc2)NC(=O)[C@H](CCN)NC1=O)[C@@H](C)O", "note": "[PMB2, polymyxin B2] ({Heptanoyl(6-Me)}-[Dab]T[Dab][Dab][Dab][dF]L[Dab][Dab]T; lactam 4-C)", "values": [{"measurement": "MIC on E. coli, 0 mM NaCl", "setting": "E. coli W3110", "value": 0.25, "unit": "mg/L"}, {"measurement": "MIC on E. coli, 100 mM NaCl", "setting": "E. coli W3110", "value": 0.25, "unit": "mg/L"}, {"measurement": "MIC on E. coli, 200 mM NaCl", "setting": "E. coli W3110", "value": 0.25, "unit": "mg/L"}, {"measurement": "MIC on E. coli, 300 mM NaCl", "setting": "E. coli W3110", "value": 0.25, "unit": "mg/L"}, {"measurement": "MIC on P. aeruginosa, 0 mM NaCl", "setting": "P. aeruginosa PAO1", "value": 0.5, "unit": "mg/L"}, {"measurement": "MIC on P. aeruginosa, 100 mM NaCl", "setting": "P. aeruginosa PAO1", "value": 0.25, "unit": "mg/L"}, {"measurement": "MIC on P. aeruginosa, 200 mM NaCl", "setting": "P. aeruginosa PAO1", "value": 0.25, "unit": "mg/L"}, {"measurement": "MIC on P. aeruginosa, 300 mM NaCl", "setting": "P. aeruginosa PAO1", "value": 0.25, "unit": "mg/L"}]}, {"compound": "FA4-Val-C2-A1-Ala-Lys-Gly-Lys-C3-Lys [EB13lin, linearized analog of EB13]", "values": [{"measurement": "Loss of activity of linearized analog relative to macrocyclic parent", "setting": "[1]", "value": "between two‐fold and eight‐fold less active"}]}, {"compound": "FA5-A3-Lys-Asn-Ala-Lys-H2-Lys-C3-Lys [EB12lin, linearized analog of EB12]", "values": [{"measurement": "Loss of activity of linearized analog relative to macrocyclic parent", "setting": "[1]", "value": "between two‐fold and eight‐fold less active"}]}, {"compound": "FA7-H4-C3-A6-Dab(*)-C2-Lys-Ser-Lys-C1-Lys-* (lariat or depsi) [EB33, hemolytic peptide-peptoid macrocycle, PDGA-generated PMB2 analog]", "values": [{"measurement": "Hemolysis of red blood cells relative to PMB2", "setting": "human red blood cells", "value": "slightly more hemolytic than PMB2"}, {"measurement": "Binding to lipopolysaccharide (dansyl-PMB fluorescence displacement)", "setting": "[2]", "value": "an even stronger signal"}]}, {"compound": "FA10-A3-Lys-C2-Dab(*)-Asn-C2-Lys-Val-Lys-* (lariat or depsi) [EB18, peptide-peptoid macrocycle, PDGA-generated PMB2 analog]", "values": [{"measurement": "Stability against proteolysis in human serum (undegraded peptide)", "setting": "Serum stability assay", "value": "did not show any significant degradation in human serum"}]}]}
